Data published in patent US7452997B2 (priority 2004, dated 2008).
Read-outs that look alike come from different tables or passages of the source.

Columns and labels:
human CB1 receptor = molecular target: T1, human CB1 receptor (Homo sapiens, UniProt P21554); experiment: biochemical; format: binding
T1 construct: expressed in transfected cells; host or cells: SK-N-MC cells, stably transfected with pcDNA3 CB-1 (human); semi-purified membrane pellet
Outline: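 Radioligand binding was run at 30° C for 90 minutes, pH 7.5 Tris buffer containing 0.5 mg/mL fatty acid free BSA, on semi-purified membranes of stably transfected SK-N-MC cells. Filter-bound radioactivity was scintillation counted, with IC50 obtained by linear regression across compound concentrations.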

human CB2 receptor = human CB2 receptor (Homo sapiens, UniProt P34972); experiment: Binding assay, cannabinoid CB2 receptor ([3H]-CP-55,940 displacement); settings: SK-N-MC cell membranes, radioligand CP-55,940 0.2 nM
Outline: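 Displacement of [3H]-CP-55,940 (0.2 nM) was measured over 90 min at 30 °C (pH 7.5 Tris/MgCl2/EDTA buffer with BSA), using semi-purified membranes of human CB2-transfected SK-N-MC cells. Bound counts collected on GF/C filters, 10 uM WIN 55,212 as nonspecific control; IC50 from varied concentrations.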

[1] = Cannabinoid CB2 Receptor Binding IC50, human CB2 receptor

Sequence of human CB2 receptor (P34972 whole entry): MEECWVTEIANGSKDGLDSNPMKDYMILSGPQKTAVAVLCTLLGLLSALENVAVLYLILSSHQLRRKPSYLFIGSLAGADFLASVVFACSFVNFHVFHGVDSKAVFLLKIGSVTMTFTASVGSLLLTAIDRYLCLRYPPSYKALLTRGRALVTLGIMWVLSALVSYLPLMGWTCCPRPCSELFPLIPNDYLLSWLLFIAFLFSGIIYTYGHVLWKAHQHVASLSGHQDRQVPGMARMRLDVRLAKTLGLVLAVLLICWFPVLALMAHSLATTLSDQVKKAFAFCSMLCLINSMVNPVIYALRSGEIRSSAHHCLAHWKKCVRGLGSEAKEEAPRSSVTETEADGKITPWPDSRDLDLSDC
T1 sequence (P21554 whole entry): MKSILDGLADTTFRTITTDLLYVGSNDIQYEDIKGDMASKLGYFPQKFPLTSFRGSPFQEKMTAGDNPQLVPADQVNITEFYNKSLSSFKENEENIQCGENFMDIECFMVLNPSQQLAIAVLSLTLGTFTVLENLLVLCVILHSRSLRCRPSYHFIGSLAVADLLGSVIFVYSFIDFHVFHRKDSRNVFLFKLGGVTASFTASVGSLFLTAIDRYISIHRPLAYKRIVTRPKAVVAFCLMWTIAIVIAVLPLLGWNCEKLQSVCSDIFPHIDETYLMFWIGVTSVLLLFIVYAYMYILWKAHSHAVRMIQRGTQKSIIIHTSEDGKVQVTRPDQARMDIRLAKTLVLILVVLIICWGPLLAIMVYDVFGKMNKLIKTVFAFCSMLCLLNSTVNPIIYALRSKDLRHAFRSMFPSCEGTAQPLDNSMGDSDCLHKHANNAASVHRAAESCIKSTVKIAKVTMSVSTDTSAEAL

Row | Structure (SMILES) | IC50 (human CB1 receptor) [nM] | IC50 (human CB2 receptor; [1]) [nM] | IC50 (human CB1 receptor; human CB1 receptor, SK-N-MC cell membranes, radioligand CP-55,940 0.2 nM, read-out: Cannabinoid CB1 Receptor Binding IC50) [nM] | IC50 (human CB2 receptor; human CB2 receptor, read-out: Cannabinoid CB2 Receptor Binding IC50) [nM]
1 | CN(C)C(=O)NC1CCc2c(c(C(=O)NC3C4CC5CC(C4)CC3C5)nn2C2CCCCC2)C1 (centres unmarked) [Cpd 89, 1-cyclohexyl-5-(3,3-dimethyl-ureido)-4,5,6,7-tetrahydro-1H-indazole-3-carboxylic acid adamantan-2-ylamide] | 3700 | 1.4 | – | –
2 | CCOC(=O)[C@@H]1C2C=CC(C2)[C@@H]1NC(=O)c1nn(Cc2ccccc2)c2c1CCCC2 (some centres unmarked) [compound 206] | 97 | 14.1 | – | –
3 | CC(CC1CCCCC1)NC(=O)c1nn(C2CCCCC2)c2c1CCCC2 (centres unmarked) [compound 330] | 1900 | 30 | – | –
4 | CC(NC(=O)c1nn(C2CCCCC2)c2c1CCCC2Cl)C12CC3CC(CC(C3)C1)C2 (centres unmarked) [compound 64] | 410 | 30 | – | –
5 | COc1ccccc1C(Cc1nn(C2CCCCC2)c2c1CCCC2)C(=O)NC1C2(C)CCC(C2)C1(C)C (centres unmarked) [Cpd 333, 3-(1-cyclohexyl-4,5,6,7-tetrahydro-1H-indazol-3-yl)-2-(2-methoxy-phenyl)-N-(1,3,3-trimethyl-bicyclo[2.2.1]hept-2-yl)-propionamide] | 5700 | 2900 | – | –
6 | O=C(Nc1nn(C2CCCCC2)c2c1CCCC2)c1cccc2ccccc12 [compound 181] | 300 | 1600 | – | –
7 | CC(NC(=O)c1nn(C2CCCCC2)c2c1CCCC2)C1CCC1 (centres unmarked) [compound 247] | 260 | 47 | – | –
8 | CCC1CCCc2c(C(=O)NC3C4(C)CCC(C4)C3(C)C)nn(-c3ccc(F)cc3)c21 (centres unmarked) [compound 192] | 60 | 2 | – | –
9 | O=C(NNC1CCCCC1)c1nn(Cc2ccccc2)c2c1CCCC2 [compound 29] | 790 | 115 | – | –
10 | CCOC(=O)C1CCCc2c1c(C(=O)NC1C3CC4CC(C3)CC1C4)nn2C1CCCCC1 (centres unmarked) [compound 71] | 530 | 500 | – | –
11 | CC(NC(=O)c1nn(C2CCCCC2)c2c1CCCC2O)C12CC3CC(CC(C3)C1)C2 (centres unmarked) [compound 163] | 4770 | 210 | – | –
12 | CCOC(=O)[C@H]1C2CCC(C2)[C@H]1NC(=O)c1nn(C2CCCCC2)c2c1CCCC2OC (some centres unmarked) [compound 282] | 11800 | 3800 | – | –
13 | CC(NC(=O)c1nn(Cc2ccccc2)c2c1CCCC2c1ccccc1)C1CCCCC1 (centres unmarked) [compound 267] | 150 | 270 | – | –
14 | C[C@@H](NC(=O)c1nn(C2CCCCC2)c2c1CCCC2)c1ccccc1 [compound 197] | 980 | 800 | – | –
15 | C[C@@H](NC(=O)c1nn(Cc2ccccc2)c2c1CCCC2)C1CCCCC1 [compound 198] | 100 | 5.7 | – | –
16 | CC(C)(C)OC(=O)NC1CCc2c(c(C(=O)NC3C4CC5CC(C4)CC3C5)nn2C2CCCCC2)C1 (centres unmarked) [compound 85] | 600 | 82 | – | –
17 | O=C(NC1C2CC3CC(C2)CC1C3)c1nn(C2CCCCC2)c2c1CC(C(=O)O)CC2 (centres unmarked) [Cpd 223, 3-(adamantan-2-ylcarbamoyl)-1-cyclohexyl-4,5,6,7-tetrahydro-1H-indazole-5-carboxylic acid] | 170000 | 2900 | – | –
18 | CCOC(=O)C(Cc1nn(C2CCCCC2)c2c1CCCC2)c1ccccc1OC (centres unmarked) [Cpd 332, 3-(1-cyclohexyl-4,5,6,7-tetrahydro-1H-indazol-3-yl)-2-(2-methoxy-phenyl)-propionic acid ethyl ester] | 3900 | 1900 | – | –
19 | COc1ccccc1CCNC(=O)c1nn(C2CCCCC2)c2c1CCCC2 [compound 236] | 25400 | 940 | – | –
20 | CCOC(=O)[C@@H]1CCCC[C@H]1NC(=O)c1nn(-c2ccc(F)cc2)c2c1CCCC2 [compound 34] | 136 | 40.9 | – | –
21 | O=C(NNC1CCCCC1)c1nn(C2CCCCC2)c2c1CCCC2 [compound 31] | 1690 | 195 | – | –
22 | CC(NC(=O)c1nn(-c2ccc(F)cc2)c2c1CCCC2CCc1ccccc1)C12CC3CC(CC(C3)C1)C2 (centres unmarked) [compound 153] | 1390 | 60 | – | –
23 | O=C(N[C@@H]1CCCC[C@@H]1CO)c1nn(C2CCCCC2)c2c1CCCC2 [compound 48] | 249 | 55.3 | – | –
24 | COc1ccc(C(O)CNC(=O)c2nn(C3CCCCC3)c3c2CCCC3)cc1 (centres unmarked) [Cpd 241, 1-cyclohexyl-4,5,6,7-tetrahydro-1H-indazole-3-carboxylic acid [2-hydroxy-2-(4-methoxy-phenyl)-ethyl]-amide] | 3400 | 500 | – | –
25 | C[C@H](C1CCCCC1)N(C)C(=O)c1nn(C2CCCCC2)c2c1CCCC2 [Cpd 328, 1-cyclohexyl-4,5,6,7-tetrahydro-1H-indazole-3-carboxylic acid [(1R)-1-cyclohexyl-ethyl]-methylamide] | 5100 | 1600 | – | –
26 | C[C@@H](NC(=O)c1nn(Cc2ccccc2)c2c1CCCC2)c1ccccc1 [compound 199] | 19 | 10 | – | –
27 | CC12CCC(C1)C(C)(C)C2NC(=O)c1nn(-c2ccccc2F)c2c1CCCC2 (centres unmarked) [compound 16] | 185 | 5.4 | – | –
28 | CN(C)C(=O)C1CCc2c(c(C(=O)NC3C4(C)CCC(C4)C3(C)C)nn2C2CCCCC2)C1 (centres unmarked) [compound 235] | 3600 | 1400 | – | –

Row | Structure (SMILES) | IC50 (human CB1 receptor) [nM] | IC50 (human CB2 receptor; [1]) [nM] | IC50 (human CB1 receptor; human CB1 receptor, SK-N-MC cell membranes, radioligand CP-55,940 0.2 nM, read-out: Cannabinoid CB1 Receptor Binding IC50) [nM] | IC50 (human CB2 receptor; human CB2 receptor, read-out: Cannabinoid CB2 Receptor Binding IC50) [nM]
29 | O=C(NC1CCCCCCC1)c1nn(-c2ccc(F)cc2)c2c1CCCC2 [compound 15] | 241 | 53.8 | – | –
30 | CCOC(=O)C1CCCc2c1c(C(=O)N[C@H](C)C1CCCCC1)nn2C1CCCCC1 (some centres unmarked) [compound 285] | 2900 | 2400 | – | –
31 | CCOC(=O)[C@@H]1C2C=CC(C2)[C@@H]1NC(=O)c1nn(C2CCCCC2)c2c1CCCC2 (some centres unmarked) [compound 280] | 3600 | 679 | – | –
32 | O=C(Nc1nn(C2CCCCC2)c2c1CCCC2)C1CCCCC1 [compound 180] | 700 | 1700 | – | –
33 | CC(NC(=O)CCc1nn(C2CCCCC2)c2c1CCCC2)C12CC3CC(CC(C3)C1)C2 (centres unmarked) [compound 53] | 6120 | 230 | – | –
34 | O=C(NCc1cccnc1)c1nn(C2CCCCC2)c2c1CCCC2 [compound 173] | 444 | 526 | – | –
35 | CCN(C(=O)c1nn(C2CCCCC2)c2c1CCCC2)[C@H](C)C1CCCCC1 [compound 203] | 590 | 240 | – | –
36 | CCOC(=O)[C@@H]1CCCC[C@H]1NC(=O)c1nn(C2CCCCC2)c2c1CCCC2 [compound 269] | 191 | 38.6 | – | –
37 | O=C(NC(Cc1ccc(OCc2ccccc2)cc1)C(=O)O)c1nn(C2CCCCC2)c2c1CCCC2 (centres unmarked) [compound 78] | 4600 | 1210 | – | –
38 | CCOC(=O)C1C2CCC(C2)C1NC(=O)c1nn(-c2ccc(F)cc2)c2c1CCCC2 (centres unmarked) [compound 23] | 1800 | 100 | – | –
39 | CCOC(=O)C1CCc2c(c(C(=O)NC(C)C34CC5CC(CC(C5)C3)C4)nn2C2CCCCC2)C1 (centres unmarked) [Cpd 132] | 2900 | 25.5 | – | –
40 | CCOC(=O)C1CCc2nn(Cc3ccccc3)c(C(=O)NC34CC5CC(CC3C5)C4)c2C1 (centres unmarked) [compound 227] | 2770 | 1150 | – | –
41 | O=C(NC1C2CC3CC(C2)CC1C3)c1nn(-c2ccc(Cl)cc2Cl)c2c1CCCC2 (centres unmarked) [compound 131] | 30 | 10 | – | –
42 | O=C(NNC1CCCCC1)c1nn(-c2ccc(F)cc2)c2c1CCCC2 [compound 30] | 7890 | 1470 | – | –
43 | O=C(NC1C2CC3CC(C2)CC1C3)c1nn(C2CCCCC2)c2c1CC(C(=O)OCc1ccccc1)CC2 (centres unmarked) [compound 79] | 30 | 10 | – | –
44 | COc1ccccc1CCNC(=O)c1nn(-c2ccccc2)c2c1CCCC2 [compound 238] | – | – | 25100 | 3720
45 | O=C(NCC(=O)C1CCCCC1)c1nn(C2CCCCC2)c2c1CCCC2 [compound 187] | 3690 | 1600 | – | –
46 | O=C(NCC12CC3CC(CC(C3)C1)C2)c1nn(-c2ccc(F)cc2)c2c1CCCC2CCc1ccccc1 (centres unmarked) [compound 152] | 340 | 200 | – | –
47 | CC(NC(=O)c1nn(C2CCCCC2)c2c1CC(=O)CC2)C12CC3CC(CC(C3)C1)C2 (centres unmarked) [compound 97] | 9700 | 30 | – | –
48 | CC[C@@H](NC(=O)c1nn(C2CCCCC2)c2c1CCCC2)c1ccccc1 [compound 204] | 800 | 10 | – | –
49 | CCOC(=O)C1=C(NC(=O)c2nn(C3CCCCC3)c3c2CCCC3)CCC1 [compound 57] | 10900 | 2200 | – | –
50 | O=C(CNC(=O)c1nn(C2CCCCC2)c2c1CCCC2)c1ccc(Br)cc1 [compound 177] | 10500 | 2400 | – | –
51 | C[C@@H]1[C@@H](NC(=O)c2nn(C3CCCCC3)c3c2CCCC3)C[C@H]2C[C@@H]1C2(C)C [compound 216] | 2800 | 70 | – | –
52 | CCOC(=O)[C@H]1C2CCC(C2)[C@H]1NC(=O)C(C)(C)Cc1nn(C2CCCCC2)c2c1CCCC2 (some centres unmarked) [compound 281] | 19700 | 16500 | – | –
53 | O=C(N[C@@H]1CCCC[C@H]1CO)c1nn(C2CCCCC2)c2c1CCCC2 [compound 49] | 150 | 72.8 | – | –
54 | COC(=O)C(Cc1ccc(OCc2ccccc2)cc1)NC(=O)c1nn(C2CCCCC2)c2c1CCCC2 (centres unmarked) [compound 81] | 490 | 20 | – | –
55 | COC(=O)C(Cc1ccc(OCc2ccccc2)cc1)NC(=O)c1nn(Cc2ccccc2)c2c1CCCC2 (centres unmarked) [compound 80] | 230 | 170 | – | –
